# Biological target: T1, IDO1 (Homo sapiens, UniProt P14902)
# T1 construct: HeLa cells were treated with a test compound in the presence of IFNγ, which induces IDO1 expression; endogenous in cells; host or cells: H1-HeLa cells (ATCC #CRL-1958), IDO1 induced with IFNγ
# Assay: Cell-Based (HeLa) Assay for Measurement of IDO1 Inhibition
# Conditions: H1-HeLa cells, IDO1 induced with IFNγ, 48 hour incubation, kynurenine in supernatant (absorbance 480 nm); geometric mean of minimum four determinations
# Experimental: To measure IDO1 inhibition in tissue culture, HeLa cells were treated with a test compound in the presence of IFNγ, which induces IDO1 expression. Following incubation, cell supernatants were assayed for kynurenine levels, an indicator of IDO1 activity.
# The following day, the test compounds were added in DMSO (0.5% final) at various concentrations, and IDO1 was inducibly expressed by the addition of 50 uL/well of 50 ng/mL of INFγ (Peprotech #300-02) in cell plating media. As a positive control, 50 uL of the cell plating media without IFNγ was added to several wells. Following a 48 hour incubation, the plates were spun down at 1,200 RPM for 5 min at 10° C. 65 μL/well of the supernatant was then transferred to new 384-well plates (Thermo #262160) that contained 10 uL/well of 30% TCA (Sigma #TO699), and the plates were sealed and incubated at 60° C. for 30 min. The plates were then centrifuged for 15 min at 2,000 RPM at 10° C. 40 μL/well of the supernatant was transferred to new 384-well plates (Thermo #262160) and was reacted with 40 μL/well of 2% (w/v) p-dimethlyaminobenzaldehyde (Sigma #156417) in glacial acetic acid (Sigma #A6283). The reaction was incubated at room temperature for 10 min and absorbance at 480 nm was read using a PerkinElmer Envision plate reader.
# Data in Table 1 were normalized based on positive (-IFNγ) and negative (+IFNγ) controls and EC50 values were calculated from the fit of the dose-response curves to a four-parameter equation. All EC50 values represent geometric mean values of a minimum of four determinations.
# T1 sequence (P14902 whole entry): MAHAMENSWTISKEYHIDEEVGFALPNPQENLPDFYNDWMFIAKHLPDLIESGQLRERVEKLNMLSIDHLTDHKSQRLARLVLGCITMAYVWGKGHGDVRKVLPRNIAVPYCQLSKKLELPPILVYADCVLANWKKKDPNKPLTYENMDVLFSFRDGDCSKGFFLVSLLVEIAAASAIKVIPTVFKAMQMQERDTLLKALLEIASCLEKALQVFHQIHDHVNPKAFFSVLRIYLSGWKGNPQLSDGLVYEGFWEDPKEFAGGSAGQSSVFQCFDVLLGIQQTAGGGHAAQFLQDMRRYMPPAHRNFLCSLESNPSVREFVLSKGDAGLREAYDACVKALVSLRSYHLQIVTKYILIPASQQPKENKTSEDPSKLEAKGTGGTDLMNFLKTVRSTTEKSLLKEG
row,Compound,EC50
1,"COCCOCc1nc2c(-c3ccc(C(F)(F)F)c(C(=O)Nc4ccc(F)cc4)c3)cccn2c1-c1cccc(F)c1F [Example 1, 5-(3-(2,3-difluorophenyl)-2-((2-methoxyethoxy)methyl)imidazo[1,2-a]pyridin-8-yl)-N-(4-fluorophenyl)-2-(trifluoromethyl)benz amide]",8680 nM
2,"O=C(Nc1ccc(F)cc1)c1cc(-c2cccn3c(-c4cccc(F)c4F)cnc23)ncc1C(F)(F)F [Example 3, 2-(3-(2,3-difluorophenyl)imidazo[1,2-a]pyridin-8-yl)-N-(4-fluorophenyl)-5-(trifluoromethyl)isonicotinamide]",2390 nM
3,"Cc1ccc(-c2cnc3c(-c4ccc(C(F)(F)F)c(C(=O)Nc5ccc(F)cc5)c4)cccn23)cn1 [Example 4, N-(4-fluorophenyl)-5-(3-(6-methylpyridin-3-yl)imidazo[1,2-a]pyridin-8-yl)-2-(trifluoromethyl)benzamide]",2230 nM
4,Cc1cccc(-c2cnc3c(-c4ccc(C(F)(F)F)c(C(=O)Nc5ccc(F)cc5)c4)cccn23)n1 [Example 5],1700 nM
5,"NCc1nc2c(-c3ccc(C(F)(F)F)c(C(=O)Nc4ccc(F)cc4)c3)cccn2c1-c1cccc(F)c1F [Example 7, 5-(2-(aminomethyl)-3-(2,3-difluorophenyl)imidazo[1,2-a]pyridin-8-yl)-N-(4-fluorophenyl)-2-(trifluoromethyl)benzamide]",1010 nM
6,"Cc1cnc(-c2cccn3c(-c4cccc(F)c4F)cnc23)cc1C(=O)Nc1ccc(F)cc1 [Example 8, 2-(3-(2,3-difluorophenyl)imidazo[1,2-a]pyridin-8-yl)-N-(4-fluorophenyl)-5-methylisonicotinamide]",945 nM
7,"Cc1ncccc1-c1cnc2c(-c3ccc(C(F)(F)F)c(C(=O)Nc4ccc(F)cc4)c3)cccn12 [Example 9, N-(4-fluorophenyl)-5-(3-(2-methylpyridin-3-yl)imidazo[1,2-a]pyridin-8-yl)-2-(trifluoromethyl)benzamide]",535 nM
8,"Cc1ccc(-c2cccn3c(-c4cccc(F)c4F)c(C)nc23)cc1C(=O)Nc1ccc(F)cc1 [Example 11, 5-(3-(2,3-difluorophenyl)-2-methylimidazo[1,2-a]pyridin-8-yl)-N-(4-fluorophenyl)-2-methylbenzamide]",436 nM
9,"Cc1ncc(-c2cccn3c(-c4cccc(F)c4F)cnc23)cc1C(=O)Nc1ccc(F)cc1 [Example 12, 5-(3-(2,3-difluorophenyl)imidazo[1,2-a]pyridin-8-yl)-N-(4-fluorophenyl)-2-methylnicotinamide]",403 nM
10,Cc1ncc(-c2ccnn3c(-c4cccc(F)c4F)cnc23)cc1C(=O)Nc1ccc(F)cc1 [Example 13],395 nM
11,"Cc1ccc(-c2cccn3c(-c4cccc(F)c4F)cnc23)nc1C(=O)Nc1ccc(F)cc1 [Example 16, 6-(3-(2,3-difluorophenyl)imidazo[1,2-a]pyridin-8-yl)-N-(4-fluorophenyl)-3-methylpicolinamide]",168 nM
12,"O=C(Nc1ccc(F)cc1)c1cc(-c2cccn3c(-c4cccc(F)c4F)cnc23)cnc1C(F)(F)F [Example 20, 5-(3-(2,3-difluorophenyl)imidazo[1,2-a]pyridin-8-yl)-N-(4-fluorophenyl)-2-(trifluoromethyl)nicotinamide]",89 nM
13,"O=C(Nc1ccc(F)cc1)c1nc(-c2cccn3c(-c4cccc(F)c4F)cnc23)ccc1C(F)(F)F [Example 24, 6-(3-(2,3-difluorophenyl)imidazo[1,2-a]pyridin-8-yl)-N-(4-fluorophenyl)-3-(trifluoromethyl)picolinamide]",64 nM
14,"O=C(Nc1ccc(F)cc1)c1cc(-c2cccn3c(-c4cccc(F)c4F)c(CO)nc23)ccc1C(F)(F)F [Example 28, 5-(3-(2,3-difluorophenyl)-2-(hydroxymethyl)imidazo[1,2-a]pyridin-8-yl)-N-(4-fluorophenyl)-2-(trifluoromethyl)benzamide]",40 nM
15,"Fc1ccc2[nH]c(-c3cc(-c4cccn5c(-c6cccc(F)c6F)cnc45)ccc3C(F)(F)F)nc2c1 [Example 36, 2-(5-(3-(2,3-difluorophenyl)imidazo[1,2-a]pyridin-8-yl)-2-(trifluoromethyl)phenyl)-5-fluoro-1H-benzo[d]imidazole]",713 nM

# The next lines start with the values.
row,EC50,Compound
1,3610 nM,"Cc1ncc(-c2cccn3c(-c4cncc(F)c4)c(CO)nc23)cc1C(=O)Nc1ccc(F)cc1 [Example 2, N-(4-fluorophenyl)-5-(3-(5-fluoropyridin-3-yl)-2-(hydroxymethyl)imidazo[1,2-a]pyridin-8-yl)-2-methylnicotinamide]"
2,1420 nM,"O=C(Nc1ccc(F)cc1)c1cc(-c2cccn3c(-c4ccncc4)cnc23)ccc1C(F)(F)F [Example 6, N-(4-fluorophenyl)-5-(3-(pyridin-4-yl)imidazo[1,2-a]pyridin-8-yl)-2-(trifluoromethyl)benzamide]"
3,372 nM,"Cc1ncc(-c2cccn3c(-c4cccc(F)c4F)c(CO)nc23)cc1C(=O)Nc1ccc(F)cc1 [Example 14, 5-(3-(2,3-difluorophenyl)-2-(hydroxymethyl)imidazo[1,2-a]pyridin-8-yl)-N-(4-fluorophenyl)-2-methylnicotinamide]"
4,272 nM,"O=C(Nc1ccc(F)cc1)c1cc(-c2cccn3c(-c4cccnc4)c(CO)nc23)ccc1Cl [Example 15, 2-chloro-N-(4-fluorophenyl)-5-(2-(hydroxymethyl)-3-(pyridin-3-yl)imidazo[1,2-a]pyridin-8-yl)benzamide]"
5,168 nM,"Cc1ccc(-c2cccn3c(-c4ccccc4)cnc23)cc1C(=O)Nc1ccc(F)cc1 [Example 17, N-(4-fluorophenyl)-2-methyl-5-(3-phenylimidazo[1,2-a]pyridin-8-yl)benzamide]"
6,165 nM,"Cc1nc2c(-c3ccc(C(F)(F)F)c(C(=O)Nc4ccc(F)cc4)c3)cccn2c1-c1cccnc1 [Example 18, N-(4-fluorophenyl)-5-(2-methyl-3-(pyridin-3-yl)imidazo[1,2-a]pyridin-8-yl)-2-(trifluoromethyl)benzamide]"
7,146 nM,"Cc1ccc(-c2cccn3c(-c4cccc(F)c4)cnc23)cc1C(=O)Nc1ccc(F)cc1 [Example 19, N-(4-fluorophenyl)-5-(3-(3-fluorophenyl)imidazo[1,2-a]pyridin-8-yl)-2-methylbenzamide]"
8,89 nM,"O=C(Nc1ccc(F)cc1)c1cc(-c2cccn3c(-c4cccnc4)c(CO)nc23)ccc1C(F)(F)F [Example 21, N-(4-fluorophenyl)-5-(2-(hydroxymethyl)-3-(pyridin-3-yl)imidazo[1,2-a]pyridin-8-yl)-2-(trifluoromethyl)benzamide]"
9,74 nM,"O=C(Nc1ccc(F)cc1)c1cc(-c2cccn3c(-c4cccnc4F)cnc23)ccc1C(F)(F)F [Example 22, N-(4-fluorophenyl)-5-(3-(2-fluoropyridin-3-yl)imidazo[1,2-a]pyridin-8-yl)-2-(trifluoromethyl)benzamide]"
10,73 nM,"Cc1ccc(-c2cccn3c(-c4ccccc4F)cnc23)cc1C(=O)Nc1ccc(F)cc1 [Example 23, N-(4-fluorophenyl)-5-(3-(2-fluorophenyl)imidazo[1,2-a]pyridin-8-yl)-2-methylbenzamide]"

# — patent publication US11186579B2 (Gilead Sciences, Inc., priority 2018, dated 2021)
